Measurements: patent publication EP0942911B1, “BENZOPYRANOPYRROLE AND BENZOPYRANOPYRIDINE ALPHA-1 ADRENERGIC COMPOUNDS” (Abbott Laboratories, priority 1996, dated 1998)
Counter-ions that a name gives are not always drawn.

Assays:
[1] = test system: α-1A adrenoreceptor; experiment: Functional antagonism: inhibition of PE-induced contraction of canine prostate strips (Schild plot); assay type: cell-based; conditions: phenylephrine-induced contraction
From the text: Canine prostate strips were used in vitro as previously described (Hieble, J.P., Boyce, A.J. and Caine, M., Fed. Proc., 45: 2609-2614 (1986)), to determine antagonist potencies against phenylephrine-induced contractions.
Functional assays indicative of pharmacologically defined α-1 adrenoreceptors were used to further characterize compounds. Inhibition of phenylephrine (PE)-induced contraction of canine prostate smooth muscle can be correlated with α-1A adrenoreceptor activation. […] For each of these models, agonist dose response curves were repeated against increasing concentrations of test agent to derive a Schild plot [log ([…]) against log (molarity of test agent)] to determine the pA2.

[2] = biological target: T1, α-1B adrenoreceptor (Rattus norvegicus, UniProt P15823); experiment: cell-based; conditions: phenylephrine-induced contraction; Schild plot; read-out: In Vitro Characterization (pA2) Rat Spleen (converted)
T1 construct: from tissue; host or cells: rat spleen
T1 sequence (P15823 1-515): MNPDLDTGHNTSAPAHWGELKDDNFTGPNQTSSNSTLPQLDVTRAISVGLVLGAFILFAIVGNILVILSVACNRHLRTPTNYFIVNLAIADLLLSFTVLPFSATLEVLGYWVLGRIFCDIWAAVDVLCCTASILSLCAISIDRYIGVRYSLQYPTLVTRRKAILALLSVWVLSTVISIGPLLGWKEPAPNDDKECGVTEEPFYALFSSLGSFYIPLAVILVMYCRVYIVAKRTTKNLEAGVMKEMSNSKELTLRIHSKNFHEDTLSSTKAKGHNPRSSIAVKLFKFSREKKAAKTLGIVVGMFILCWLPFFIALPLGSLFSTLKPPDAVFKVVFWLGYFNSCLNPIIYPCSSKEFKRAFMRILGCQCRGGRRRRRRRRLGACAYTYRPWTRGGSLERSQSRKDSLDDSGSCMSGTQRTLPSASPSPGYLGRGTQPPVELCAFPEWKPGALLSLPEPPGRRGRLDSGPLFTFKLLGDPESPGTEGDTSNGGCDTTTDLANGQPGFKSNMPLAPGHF
Method in brief: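 Phenylephrine dose-response curves for contraction were repeated against increasing test-agent concentrations. pA2 was derived by Schild plot [[…] vs log molarity of test agent].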

Row | Compound | In Vitro Characterization (pA2) Dog Prostate [1] | Kb [2] [nM]
1 | COc1ccc2c(c1)OC[C@H]1CN(CCn3c(=O)[nH]c4c(sc5ccccc54)c3=O)C[C@@H]21.Cl (racemic) [Example 63, 3-[2-((±)-cis-7-Methoxy-1,2,3,3a,4,9b-hexahydro-[1]-benzopyrano[3,4-c]pyrrol-2-yl)ethyl]-[1]benzthieno[3,2-d]pyrimidine-2,4(1H,3H)-dione hydrochloride] | 6.65 | –
2 | COc1ccc2c(c1)OC[C@H]1CN(CCCn3c(=O)[nH]c4c(sc5ccccc54)c3=O)C[C@@H]21.Cl (racemic) [Example 64, 3-[3-((±)-cis-7-Methoxy-1,2,3,3a,4,9b-hexahydro-[1]-benzopyrano[3,4-c]pyrrol-2-yl)propyl]-[1]benzthieno[3,2-d]pyrimidine-2,4(1H,3H)-dione hydrochloride] | 6.92 | –
3 | COc1cccc2c1[C@@H]1CN(CCn3c(=O)[nH]c4c(sc5ccccc54)c3=O)C[C@@H]1CO2.Cl (racemic) [Example 65, 3-[2-((±)-cis-9-Methoxy-1,2,3,3a,4,9b-hexahydro-[1]-benzopyrano[3,4-c]pyrrol-2-yl)ethyl]-[1]benzthieno[3,2-d]pyrimidine-2,4(1H,3H)-dione hydrochloride] | 7.76 | –
4 | COc1cccc2c1[C@@H]1CN(CCCn3c(=O)[nH]c4c(sc5ccccc54)c3=O)C[C@@H]1CO2.Cl (racemic) [Example 66, 3-[3-((±)-cis-9-Methoxy-1,2,3,3a,4,9b-hexahydro-[1]-benzopyrano[3,4-c]pyrrol-2-yl)propyl]-[1]benzthieno[3,2-d]pyrimidine-2,4(1H,3H)-dione hydrochloride] | 7.48 | –
5 | COc1cccc2c1OC[C@H]1CN(CCn3c(=O)[nH]c4c(sc5ccccc54)c3=O)C[C@@H]21.Cl (racemic) [Example 67, 3-[2-((±)-cis-6-Methoxy-1,2,3,3a,4,9b-hexahydro-[1]-benzopyrano[3,4-c]pyrrol-2-yl)ethyl]-[1]benzthieno[3,2-d]pyrimidine-2,4(1H,3H)-dione hydrochloride] | 7.33 | 148
6 | COc1cccc2c1OC[C@H]1CN(CCCn3c(=O)[nH]c4c(sc5ccccc54)c3=O)C[C@@H]21.Cl (racemic) [Example 68, 3-[3-((±)-cis-6-Methoxy-1,2,3,3a,4,9b-hexahydro-[1]-benzopyrano[3,4-c]pyrrol-2-yl)propyl]-[1]benzthieno[3,2-d]pyrimidine-2,4(1H,3H)-dione hydrochloride] | 7.02 | –
7 | Cl.O=c1[nH]c2c(sc3ccccc32)c(=O)n1CCN1C[C@@H]2COc3ccccc3[C@@H]2C1 (racemic) [Example 69, 3-[2-((±)-cis-1,2,3,3a,4,9b-hexahydro-[1]-benzopyrano[3,4-c]pyrrol-2-yl)ethyl]-[1]benzthieno[3,2-d]pyrimidine-2,4(1H,3H)-dione hydrochloride] | 6.91 | –
8 | COc1cccc2c1[C@H]1CN(CCCCn3c(=O)[nH]c4c(sc5nccnc54)c3=O)C[C@@H]1CO2.Cl.Cl (racemic) [Example 74, 3-[4-((±)-trans-9-Methoxy-1,2,3,3a,4,9b-hexahydro-[1]-benzopyrano[3,4-c]pyrrol-2-yl)butyl]-pyrazino[2',3':4,5]thieno[3,2-d]pyrimidine-2,4(1H,3H)-dione dihydrochloride] | 9.03 | 6.46
9 | COc1cccc2c1[C@@H]1CCN(CCCCn3c(=O)[nH]c4c(sc5ncccc54)c3=O)C[C@H]1CO2 (racemic) [Example 85, 3-[4-((±)-trans-10-Methoxy-1,3,4,4a,5,10b-hexahydro-2H-[1]-benzopyrano[3,4-c]pyrido-3-yl)butyl]-pyrido[3',2':4,5]thieno[3,2-d]pyrimidine-2,4(1H,3H)-dione dihydrochloride] | 8.6 | –
10 | COc1cccc2c1[C@@H]1CN(CCCCn3c(=O)[nH]c4c(sc5cccnc54)c3=O)C[C@@H]1CO2 [Example 1, 3-[4-((3aR,9bR)-cis-9-Methoxy-1,2,3,3a,4,9b-hexahydro-[1]-benzopyrano[3,4-c]pyrrol-2-yl)butyl]-pyrido[2',3':4,5]thieno[3,2-d]pyrimidine-2,4(1H,3H)-dione hydrochloride] | 8.69 | –
11 | COc1cccc2c1[C@H]1CN(CCCCn3c(=O)[nH]c4c(sc5cccnc54)c3=O)C[C@H]1CO2 [Example 2, 3-[4-((3aS,9bS)-cis-9-Methoxy-1,2,3,3a,4,9b-hexahydro-[1]-benzopyrano[3,4-c]pyrrol-2-yl)butyl]-pyrido[2',3':4,5]thieno[3,2-d]pyrimidine-2,4(1H,3H)-dione hydrochloride] | 7.95 | –
12 | COc1cccc2c1[C@@H]1CN(CCCCn3c(=O)[nH]c4c(sc5cccnc54)c3=O)C[C@H]1CO2 [Example 3, 3-[4-((3aS,9bR)-trans-9-Methoxy-1,2,3,3a,4,9b-hexahydro-[1]-benzopyrano[3,4-c]pyrrol-2-yl)butyl]-pyrido[2',3':4,5]thieno[3,2-d]pyrimidine-2,4(1H,3H)-dione hydrochloride] | 9.43 | –
13 | COc1cccc2c1[C@@H]1CN(CCCCn3c(=O)[nH]c4c(sc5ncc(Cl)nc54)c3=O)C[C@H]1CO2 [Example 13, 3-[4-((3aS,9bR)-trans-9-Methoxy-1,2,3,3a,4,9b-hexahydro-[1]-benzopyrano[3,4-c]pyrrol-2-yl)butyl]-8-chloro-pyrazino[2',3':4,5]thieno[3,2-d]pyrimidine-2,4(1H,3H)-dione hydrochloride] | 9.91 | 4.07
14 | COc1ccc2sc3c(=O)n(CCCCN4C[C@H]5COc6cccc(OC)c6[C@@H]5C4)c(=O)[nH]c3c2n1 [Example 26, 3-[4-((3aS,9bR)-trans-9-Methoxy-1,2,3,3a,4,9b-hexahydro-[1]-benzopyrano[3,4-c]pyrrol-2-yl)butyl]-8-methoxy-pyrido[2',3':4,5]thieno[3,2-d]pyrimidine-2,4(1H,3H)-dione hydrochloride] | 9.15 | 3.16
15 | COc1cccc2c1[C@@H]1CN(CCCCn3c(=O)[nH]c4c(sc5ncc(-c6ccccc6)nc54)c3=O)C[C@@H]1CO2 [Example 39, 3-[4-((3aR,9bR)-cis-9-Methoxy-1,2,3,3a,4,9b-hexahydro-[1]-benzopyrano[3,4-c]pyrrol-2-yl)butyl]-8-phenyl-pyrazino[2',3':4,5]thieno[3,2-d]pyrimidine-2,4(1H,3H)-dione hydrochloride] | 8.52 | 148
16 | COc1cccc2c1[C@@H]1CN(CCCCn3c(=O)[nH]c4c(sc5ccnc(Cl)c54)c3=O)C[C@@H]1CO2 [Example 48, 3-[4-((3aR,9bR)-cis-9-Methoxy-1,2,3,3a,4,9b-hexahydro-[1]-benzopyrano[3,4-c]pyrrol-2-yl)butyl]-9-chloro-pyrido[3',4';4,5]thieno[3,2-d]pyrimidine-2,4(1H,3H)-dione hydrochloride] | – | 39.8
17 | COc1cccc2c1[C@@H]1CN(CCCCn3c(=O)[nH]c4c(sc5ccnc(OC)c54)c3=O)C[C@H]1CO2 [Example 49, 3-[4-((3aS,9bR)-trans-9-Methoxy-1,2,3,3a,4,9b-hexahydro-[1]-benzopyrano[3,4-c]pyrrol-2-yl)butyl]-9-methoxy-pyrido[3',4':4,5]thieno[3,2-d]pyrimidine-2,4(1H,3H)-dione fumarate] | – | 7.24
18 | COc1cccc2c1[C@@H]1CN(CCCCn3c(=O)[nH]c4c(sc5ccc(OC(C)C)nc54)c3=O)C[C@H]1CO2 [Example 51, 3-[4-((3aS,9bR)-trans-9-Methoxy-1,2,3,3a,4,9b-hexahydro-[1]-benzopyrano[3,4-c]pyrrol-2-yl)butyl]-8-isopropoxy-pyrido[2',3':4,5]thieno[3,2-d]pyrimidine-2,4(1H,3H)-dione hydrochloride] | – | 33.9
19 | COc1cccc2c1[C@@H]1CN(CCCCn3c(=O)[nH]c4c(sc5c(Cl)nccc54)c3=O)C[C@@H]1CO2 [Example 53, 3-[4-((3aR,9bR)-cis-9-Methoxy-1,2,3,3a,4,9b-hexahydro-[1]-benzopyrano[3,4-c]pyrrol-2-yl)butyl]-6-chloro-pyrido[4',3':4,5]thieno[3,2-d]pyrimidine-2,4(1H,3H)-dione] | – | 63.1
20 | COc1cccc2c1[C@@H]1CN(CCCCn3c(=O)[nH]c4c(sc5c(Cl)nccc54)c3=O)C[C@H]1CO2 [Example 54, 3-[4-((3aS,9bR)-trans-9-Methoxy-1,2,3,3a,4,9b-hexahydro-[1]-benzopyrano[3,4-c]pyrrol-2-yl)butyl]-6-chloro-pyrido[4',3':4,5]thieno[3,2-d]pyrimidine-2,4(1H,3H)-dione] | – | 49
